In PubChem BioAssay (NCI):
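Exposure lasted 48 hours, with cells grown in 96-well plates and compounds tested at five concentrations. TGI is the concentration that stops growth completely.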

Legend:
Assay in all cases: NCI-60 cell line screen, 48 h
[1] = system: 786-0 renal
[2] = system: A549 NSCLC
[3] = system: ACHN renal
[4] = system: BT-549 breast
[5] = system: CAKI-1 renal
[6] = system: CCRF-CEM leukemia
[7] = system: COLO 205 colon
[8] = system: DU-145 prostate
[9] = system: EKVX NSCLC
[10] = system: HCC-2998 colon
[11] = system: HCT-116 colon
[12] = system: HCT-15 colon
[13] = system: HL-60(TB) leukemia
[14] = system: HOP-62 NSCLC
[15] = system: HT29 colon
[16] = system: K-562 leukemia
[17] = system: KM12 colon
[18] = system: LOX IMVI melanoma
[19] = system: M14 melanoma
[20] = system: MALME-3M melanoma
[21] = system: MCF7 breast
[22] = system: MDA-MB-435
[23] = system: MDA-N
[24] = system: MOLT-4 leukemia
[25] = system: NCI-H226 lung
[26] = system: NCI-H23 lung
[27] = system: NCI-H522 lung
[28] = system: NCI/ADR-RES ovarian
[29] = system: OVCAR-3 ovarian
[30] = system: OVCAR-4 ovarian
[31] = system: OVCAR-5 ovarian
[32] = system: OVCAR-8 ovarian
[33] = system: PC-3 prostate
[34] = system: RPMI-8226 leukemia
[35] = system: RXF 393 renal
[36] = system: SF-268 CNS
[37] = system: SF-295 CNS
[38] = system: SF-539 CNS
[39] = system: SK-MEL-2 melanoma
[40] = system: SK-MEL-28 melanoma
[41] = system: SK-MEL-5 melanoma
[42] = system: SK-OV-3 ovarian
[43] = system: SN12C renal
[44] = system: SNB-19 CNS
[45] = system: SNB-75 CNS
[46] = system: SR leukemia
[47] = system: SW-620 colon
[48] = system: T-47D breast
[49] = system: TK-10 renal
[50] = system: U251 CNS
[51] = system: UACC-257 melanoma
[52] = system: UACC-62 melanoma
[53] = system: UO-31 renal

Measured: TGI

COc1cc(N2C(=O)C(=O)C3(CCCCC3)C2=O)cc(OC)c1OC
> 100 µM: [1] | [2] | [3] | [4] | [5] | [6] | [7] | [8] | [9] | [10] | [11] | [12] | [13] | [14] | [15] | [16] | [17] | [18] | [19] | [20] | [21] | [22] | [23] | [24] | [25] | [26] | [27] | [28] | [29] | [30] | [31] | [32] | [33] | [34] | [35] | [36] | [37] | [38] | [39] | [40] | [41] | [42] | [43] | [44] | [45] | [46] | [47] | [48] | [49] | [50] | [51] | [52] | [53]
